# Assay results as given in patent US20090306133A1, “New Acetyl Coenzyme A Carboxylase (ACC) Inhibitors And Uses In Treatments Of Obesity And Diabetes Mellitus - 087” (ASTRAZENECA AB, priority 2007, published 2009).
# Experiments:
# [1] = molecular target: Human recombinant Acetyl-CoA Carboxylase 1 (ACC1) (Homo sapiens, UniProt Q13085); experiment: Assay Y: ACC1 inhibition, inorganic phosphate (Malachite Green); format: biochemical; details: Assay Y: room temperature, 3 hr, 15 min preincubation
# How it was run: (§1)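 Enzyme preincubated with compound 15 min before substrate addition; reaction run 3 h, then phosphate detected with Malachite Green at 670 nm after 10 min at room temperature. Triplicate 10-point titrations; IC50 by non-linear four-parameter curve fitting.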
# [2] = molecular target: Human recombinant Acetyl-CoA Carboxylase 2 (ACC2) (Homo sapiens, UniProt O00763); experiment: Assay Y: ACC2 inhibition, inorganic phosphate (Malachite Green); format: biochemical; details: Assay Y: room temperature, 3 hr, 15 min preincubation
# Human recombinant Acetyl-CoA Carboxylase 2 (ACC2), sequence (O00763 whole entry): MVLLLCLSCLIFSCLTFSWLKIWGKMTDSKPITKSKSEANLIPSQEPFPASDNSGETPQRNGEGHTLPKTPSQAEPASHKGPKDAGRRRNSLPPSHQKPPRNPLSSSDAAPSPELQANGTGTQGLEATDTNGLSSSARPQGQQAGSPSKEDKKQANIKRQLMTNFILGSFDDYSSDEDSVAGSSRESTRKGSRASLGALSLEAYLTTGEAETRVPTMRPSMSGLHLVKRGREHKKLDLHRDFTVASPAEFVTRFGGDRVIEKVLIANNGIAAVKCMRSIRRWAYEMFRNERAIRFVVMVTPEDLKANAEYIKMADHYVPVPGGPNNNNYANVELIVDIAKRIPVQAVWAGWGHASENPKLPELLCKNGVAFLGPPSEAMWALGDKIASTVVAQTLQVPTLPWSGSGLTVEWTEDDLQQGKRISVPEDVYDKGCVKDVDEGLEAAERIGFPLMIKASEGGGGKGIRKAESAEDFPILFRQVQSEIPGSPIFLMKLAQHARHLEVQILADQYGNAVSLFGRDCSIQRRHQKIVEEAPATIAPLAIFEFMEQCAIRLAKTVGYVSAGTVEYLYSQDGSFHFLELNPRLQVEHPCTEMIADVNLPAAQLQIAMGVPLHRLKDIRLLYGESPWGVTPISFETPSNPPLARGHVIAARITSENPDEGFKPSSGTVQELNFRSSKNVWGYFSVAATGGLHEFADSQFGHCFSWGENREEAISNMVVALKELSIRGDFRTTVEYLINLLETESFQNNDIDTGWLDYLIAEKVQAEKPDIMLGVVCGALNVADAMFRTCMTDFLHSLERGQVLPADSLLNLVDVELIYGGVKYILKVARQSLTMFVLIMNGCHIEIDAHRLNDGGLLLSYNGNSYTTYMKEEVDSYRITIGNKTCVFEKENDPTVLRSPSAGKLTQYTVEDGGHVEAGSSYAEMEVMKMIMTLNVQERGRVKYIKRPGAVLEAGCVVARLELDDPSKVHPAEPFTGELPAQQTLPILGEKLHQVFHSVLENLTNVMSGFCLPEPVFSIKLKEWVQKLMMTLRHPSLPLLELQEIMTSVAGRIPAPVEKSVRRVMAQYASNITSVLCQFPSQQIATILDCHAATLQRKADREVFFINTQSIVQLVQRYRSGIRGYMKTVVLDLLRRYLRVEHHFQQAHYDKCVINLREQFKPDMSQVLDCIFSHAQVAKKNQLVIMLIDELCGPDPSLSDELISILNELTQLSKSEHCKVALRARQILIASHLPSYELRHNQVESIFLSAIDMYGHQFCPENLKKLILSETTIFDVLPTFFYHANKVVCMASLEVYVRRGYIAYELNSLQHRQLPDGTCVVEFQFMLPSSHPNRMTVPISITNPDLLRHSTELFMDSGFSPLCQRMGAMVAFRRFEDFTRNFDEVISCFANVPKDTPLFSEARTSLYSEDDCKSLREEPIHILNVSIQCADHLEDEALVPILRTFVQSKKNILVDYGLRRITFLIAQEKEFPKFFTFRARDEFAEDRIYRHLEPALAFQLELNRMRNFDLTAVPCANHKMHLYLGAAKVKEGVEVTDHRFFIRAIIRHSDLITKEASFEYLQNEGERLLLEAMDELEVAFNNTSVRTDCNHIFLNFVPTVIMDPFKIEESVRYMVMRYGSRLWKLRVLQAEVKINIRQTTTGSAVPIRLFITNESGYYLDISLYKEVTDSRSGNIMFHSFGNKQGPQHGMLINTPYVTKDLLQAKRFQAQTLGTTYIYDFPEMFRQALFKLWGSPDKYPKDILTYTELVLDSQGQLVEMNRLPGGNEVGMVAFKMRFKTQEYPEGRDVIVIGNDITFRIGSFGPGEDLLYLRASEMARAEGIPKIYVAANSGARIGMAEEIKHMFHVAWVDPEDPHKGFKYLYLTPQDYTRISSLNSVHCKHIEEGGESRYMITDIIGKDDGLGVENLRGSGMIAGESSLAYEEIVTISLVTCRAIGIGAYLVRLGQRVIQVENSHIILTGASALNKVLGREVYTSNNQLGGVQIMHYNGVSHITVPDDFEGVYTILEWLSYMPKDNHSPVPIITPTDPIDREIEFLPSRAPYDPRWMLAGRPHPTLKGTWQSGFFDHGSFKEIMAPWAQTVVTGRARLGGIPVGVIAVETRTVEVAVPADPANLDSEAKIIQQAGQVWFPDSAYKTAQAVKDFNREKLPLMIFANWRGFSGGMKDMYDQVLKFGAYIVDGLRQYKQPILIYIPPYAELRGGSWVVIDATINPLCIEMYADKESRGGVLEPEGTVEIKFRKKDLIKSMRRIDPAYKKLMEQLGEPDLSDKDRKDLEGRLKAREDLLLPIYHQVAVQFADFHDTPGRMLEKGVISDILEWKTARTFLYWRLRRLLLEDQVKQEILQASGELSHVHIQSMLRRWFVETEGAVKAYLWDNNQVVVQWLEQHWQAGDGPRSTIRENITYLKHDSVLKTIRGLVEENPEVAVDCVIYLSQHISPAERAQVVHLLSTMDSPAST
# How it was run: as §1
compound,measurement,setting,value
"CCN(C[C@H]1CC[C@H](CNC(=O)OC(C)(C)C)CC1)S(=O)(=O)c1ccc(-c2csc(C)n2)s1 [Example 90, tert-Butyl ({trans-4-[(ethyl {[5-(2-methyl-1,3-thiazol-4-yl)-2-thienyl]sulfonyl}amino)-methyl]cyclohexyl}methyl)carbamate]",IC50,[1],> 20000 nM
same,IC50,[2],2010 nM
"CC(=O)c1ccc(-c2cc(C(=O)NC[C@H]3CC[C@H](CNC(=O)OC(C)(C)C)CC3)c3ccccc3n2)s1 [Example 13, tert-Butyl ({trans-4-[({[2-(5-acetyl-2-thienyl)quinolin-4-yl]carbonyl}amino)methyl]-cyclohexyl}methyl)carbamate]",IC50,[1],450 nM
same,IC50,[2],160 nM
"COc1ccc(-c2cc(C(=O)NC[C@H]3CC[C@H](CNC(=O)OC(C)(C)C)CC3)ccn2)cn1 [Example 49, tert-Butyl {[trans-4-({[(6′-methoxy-2,3′-bipyridin-4-yl)carbonyl]amino}methyl)cyclohexyl]methyl}carbamate]",IC50,[1],7600 nM
same,IC50,[2],9870 nM
"CC(C)(C)OC(=O)NC[C@H]1CC[C@H](CNS(=O)(=O)c2ccc(-c3ccno3)s2)CC1 [Example 72, tert-Butyl {[trans-4-({[(5-isoxazol-5-yl-2-thienyl)sulfonyl]amino}methyl)cyclo-hexyl]methyl}carbamate]",IC50,[1],> 20000 nM
same,IC50,[2],2480 nM
"CC(C)(C)OC(=O)NC[C@H]1CC[C@H](CNC(=O)c2cc(-c3ccc(F)cc3)nc3ccccc23)CC1 [Example 14, tert-Butyl ({trans-4-[({[2-(4-fluorophenyl)quinolin-4-yl]carbonyl}amino)methyl]-cyclohexyl}methyl)carbamate]",IC50,[1],690 nM
same,IC50,[2],180 nM
"CC(C)(C)OC(=O)NC[C@H]1CC[C@H](CNC(=O)c2cc(-c3cccc(CC(=O)O)c3)nc3ccccc23)CC1 [Example 40, [3-(4-{[(trans-4-{[(tert-Butoxycarbonyl)amino]methyl}cyclohexyl)methyl]-carbamoyl}quinolin-2-yl)phenyl]acetic Acid]",IC50,[1],8640 nM
same,IC50,[2],1000 nM
"CC(C)(C)OC(=O)NC[C@H]1CC[C@H](CNC(=O)c2cc(-c3ccc(C(N)=O)cc3)nc3ccccc23)CC1 [Example 9, tert-butyl ({trans-4-[({[2-(4-carbamoylphenyl)quinolin-4-yl]carbonyl}amino)methyl]cyclohexyl}methyl)carbamate]",IC50,[1],250 nM
same,IC50,[2],40 nM
"CC(=O)NCc1cccc(-c2cc(C(=O)NC[C@H]3CC[C@H](CNC(=O)OC(C)(C)C)CC3)c3ccccc3n2)c1 [Example 100, tert-Butyl [(trans-4-{[({2-[3-(acetamidomethyl)phenyl]quinolin-4-yl}carbonyl)amino]-methyl}cyclohexyl)methyl]carbamate]",IC50,[1],590 nM
same,IC50,[2],110 nM
"CCCOC(=O)NC[C@H]1CC[C@H](CNC(=O)c2cc(-c3ccncc3)nc3ccccc23)CC1 [Example 58, Propyl {[trans-4-({[(2-pyridin-4-ylquinolin-4-yl)carbonyl]amino}methyl)cyclohexyl]-methyl}carbamate]",IC50,[1],2100 nM
same,IC50,[2],810 nM
"CC(C)(C)OC(=O)NC[C@H]1CC[C@H](CNS(=O)(=O)c2ccc(Cl)c(Cl)c2)CC1 [Example 65, tert-Butyl {[trans-4-({[(3,4-dichlorophenyl)sulfonyl]amino}methyl)cyclohexyl]methyl}-carbamate]",IC50,[1],> 20000 nM
same,IC50,[2],3880 nM
"CN1CCN(c2ccc(-c3cc(C(=O)N[C@H]4CC[C@H](CNC(=O)OC(C)(C)C)CC4)c4ccccc4n3)cn2)CC1 [Example 204, tert-Butyl ({trans-4-[({2-[6-(4-methylpiperazin-1-yl)pyridin-3-yl]quinolin-4-yl}carbonyl)amino]cyclohexyl}methyl)carbamate]",IC50,[1],3800 nM
same,IC50,[2],380 nM
"CCN(C[C@H]1CC[C@H](CNC(=O)OC(C)(C)C)CC1)S(=O)(=O)c1ccc2ccccc2c1 [Example 79, tert-Butyl [(trans-4-{[ethyl(2-naphthylsulfonyl)amino]methyl}cyclohexyl)methyl]-carbamate]",IC50,[1],> 20000 nM
same,IC50,[2],5400 nM
"CC(C)(C)OC(=O)NC[C@H]1CC[C@H](CNC(=O)c2cc(-c3ccccc3)nc3ccccc23)CC1 [Example 6, tert-butyl {[trans-4-({[(2-phenylquinolin-4-yl)carbonyl]amino}methyl)cyclohexyl]methyl}carbamate]",IC50,[1],560 nM
same,IC50,[2],240 nM
"CCOC(=O)NC[C@H]1CC[C@H](CNC(=O)c2cc(-c3cccc(OC)c3)nc3ccccc23)CC1 [Example 27, Ethyl ({trans-4-[({[2-(3-methoxyphenyl)quinolin-4-yl]carbonyl}amino)methyl]cyclo-hexyl}methyl)carbamate]",IC50,[1],3590 nM
same,IC50,[2],1180 nM
"CC(C)(C)OC(=O)NC[C@H]1CC[C@H](CNC(=O)c2cc(-c3ccc(C(F)(F)F)cc3)nc3ccccc23)CC1 [Example 12, tert-Butyl [(trans-4-{[({2-[4-(trifluoromethyl)phenyl]quinolin-4-yl}carbonyl)amino]-methyl}cyclohexyl)methyl]carbamate]",IC50,[1],> 20000 nM
same,IC50,[2],560 nM
"Cc1nc(-c2ccc(S(=O)(=O)N(C)C[C@H]3CC[C@H](CNC(=O)OC(C)(C)C)CC3)s2)cs1 [Example 89, tert-Butyl ({trans-4-[(methyl {[5-(2-methyl-1,3-thiazol-4-yl)-2-thienyl]sulfonyl}-amino)methyl]cyclohexyl}methyl)carbamate]",IC50,[1],> 20000 nM
same,IC50,[2],3030 nM
"CC(C)(C)OC(=O)NC[C@H]1CC[C@H](CNC(=O)c2ccnc(-c3cc4ccccc4s3)c2)CC1 [Example 45, tert-Butyl {[trans-4-({[2-(1-benzothiophen-2-yl)isonicotinoyl]amino}methyl)cyclo-hexyl]methyl}carbamate]",IC50,[1],> 20000 nM
same,IC50,[2],4350 nM
"CCOC(=O)NC[C@H]1CC[C@H](CNC(=O)c2cc(-c3ccc(F)cc3)nc3ccccc23)CC1 [Example 17, Ethyl ({trans-4-[({[2-(4-fluorophenyl)quinolin-4-yl]carbonyl}amino)methyl]cyclo-hexyl}methyl)carbamate]",IC50,[1],> 20000 nM
same,IC50,[2],1940 nM
"CC(C)(C)OC(=O)NC[C@H]1CC[C@H](CNC(=O)c2cc(-c3ccc(C(=O)O)cc3)nc3ccccc23)CC1 [Example 93, 4-(4-{[(trans-4-{[(tert-Butoxycarbonyl)amino]methyl}cyclohexyl)methyl]carbamoyl}-quinolin-2-yl)benzoic acid]",IC50,[1],1850 nM
same,IC50,[2],170 nM
"CC(C)(C)COC(=O)NC[C@H]1CC[C@H](CNC(=O)c2cc(-c3ccncc3)nc3ccccc23)CC1 [Example 55, 2,2-Dimethylpropyl {[trans-4-({[(2-pyridin-4-ylquinolin-4-yl)carbonyl]amino}methyl)-cyclohexyl]methyl}carbamate]",IC50,[1],1300 nM
same,IC50,[2],280 nM
"Cc1cc(C(=O)NC[C@H]2CC[C@H](CNC(=O)OC(C)(C)C)CC2)cc(-c2ccc(CN)cc2)n1 [Example 38, tert-Butyl ({trans-4-[({2-[4-(aminomethyl)phenyl]-6-methylisonicotinoyl}amino)-methyl]cyclohexyl}methyl)carbamate]",IC50,[1],5440 nM
same,IC50,[2],4050 nM
"CC(C)(C)OC(=O)NC[C@H]1CC[C@H](CNC(=O)c2cc(-c3ccc(C(N)=O)nc3)nc3ccccc23)CC1 [Example 5, tert-Butyl ({trans-4-[({[2-(6-carbamoylpyridin-3-yl)quinolin-4-yl]carbonyl}amino)-methyl]cyclohexyl}methyl)carbamate]",IC50,[1],1220 nM
same,IC50,[2],260 nM
"COc1cc(C(=O)NC[C@H]2CC[C@H](CNC(=O)OC(C)(C)C)CC2)cc(-c2ccc(CN)cc2)n1 [Example 36, tert-Butyl ({trans-4-[({2-[4-(aminomethyl)phenyl]-6-methoxyisonicotinoyl}-amino)methyl]cyclohexyl}methyl)carbamate]",IC50,[1],3950 nM
same,IC50,[2],1590 nM
"CC(C)c1ccc(S(=O)(=O)NC[C@H]2CC[C@H](CNC(=O)OC(C)(C)C)CC2)cc1 [Example 68, tert-Butyl {[trans-4-({[(4-isopropylphenyl)sulfonyl]amino}methyl)cyclohexyl]methyl}-carbamate]",IC50,[1],> 20000 nM
same,IC50,[2],2620 nM
"CC(C)(C)OC(=O)NC[C@H]1CC[C@H](CNS(=O)(=O)c2ccc(-c3ccccc3)cc2)CC1 [Example 67, tert-Butyl [(trans-4-{[(biphenyl-4-ylsulfonyl)amino]methyl}cyclohexyl)methyl]-carbamate]",IC50,[1],> 20000 nM
same,IC50,[2],3290 nM
"CC(C)(C)OC(=O)NC[C@H]1CC[C@H](CNC(=O)c2ccnc(-c3cccc(Cl)c3)c2)CC1 [Example 51, tert-Butyl {[trans-4-({[2-(3-chlorophenyl)isonicotinoyl]amino}methyl)cyclohexyl]-methyl}carbamate]",IC50,[1],> 20000 nM
same,IC50,[2],5670 nM
"COCCOC(=O)NC[C@H]1CC[C@H](CNC(=O)c2cc(-c3ccc(N4CCN(C)CC4)nc3)nc3ccccc23)CC1 [Example 120, 2-Methoxyethyl[(trans-4-{[({2-[6-(4-methylpiperazin-1-yl)pyridin-3-yl]quinolin-4-yl}carbonyl)amino]methyl}cyclohexyl)methyl]carbamate]",IC50,[1],4250 nM
same,IC50,[2],1320 nM
"CC(C)OC(=O)NC[C@H]1CC[C@H](CNC(=O)c2cc(-c3ccncc3)nc3ccccc23)CC1 [Example 57, Isopropyl {[trans-4-({[(2-pyridin-4-ylquinolin-4-yl)carbonyl]amino}methyl)cyclo-hexyl]methyl}carbamate]",IC50,[1],1910 nM
same,IC50,[2],800 nM
"CCOC(=O)NC[C@H]1CC[C@H](CNC(=O)c2cc(-c3cnccn3)nc3ccccc23)CC1 [Example 26, Ethyl {[trans-4-({[(2-pyrazin-2-ylquinolin-4-yl)carbonyl]amino}methyl)cyclohexyl]-methyl}carbamate]",IC50,[1],> 20000 nM
same,IC50,[2],4030 nM
